Four compounds from DBAASP can be followed below.

Usually MIC stands for the smallest concentration in the dilution series that meets the test's criterion for growth inhibition. Low values mean inhibition by little substance, high ones a need for much substance.

Test systems include Candida albicans C627; Acinetobacter baumannii; Bacillus subtilis; Escherichia coli; Micrococcus luteus; Pseudomonas aeruginosa; Staphylococcus aureus.
Common to all, as to experiment: ≥ marks a high value that may be exact or a test limit, other limits are often not marked, values filed in µg/mL are converted to µM
Assay [1] relates to Enterococcus faecium mic80.
For assay [2], the system named is Escherichia coli ESBL 63103.
Assay [3] has as its system Pseudomonas aeruginosa 213.
Assay [4] relates to Pseudomonas aeruginosa H103.
The test system of assay [5] is Pseudomonas aeruginosa LES400.
Assay [6] relates to Staphylococcus aureus ATCC 25923.
Assay [7] has as its system Staphylococcus aureus C623.
Assay [8] relates to Escherichia coli ATCC 25322.
Assay [9] has as its system Klebsiella pneumoniae ATCC 700603.
Assay [10] concerns Pseudomonas aeruginosa ATCC 27853.
Assay [11] deals with Staphylococcus epidermidis ATCC 12228.
Assay [12] has as its system Corynebacterium glutamicum ATCC 13032.
The subject of assay [13] is Escherichia coli DH5alpha.
Assay [14] relates to Stenotrophomonas maltophilia.

Values after ≈ are worked out from the molar mass of the structure shown.

On to `CC[C@H](C)[C@H](N)C(=O)N[C@@H](CCCCN)C(=O)N[C@@H](Cc1c[nH]c2ccccc12)C(=O)N[C@@H](CCCCN)C(=O)N[C@@H](CCCN=C(N)N)C(=O)N[C@@H](Cc1c[nH]c2ccccc12)C(=O)N[C@@H](Cc1c[nH]c2ccccc12)C(=O)N[C@@H](Cc1c[nH]c2ccccc12)C(=O)N[C@@H](CCCN=C(N)N)C(=O)O` [IKWKRWWWR], for which the MIC in the assay with Candida albicans C627 is 5.54 µM (≈ 8 µg/mL); in [1], 22.1 µM (≈ 32 µg/mL); in [2] it was 22.1 µM (≈ 32 µg/mL); in [3], at least 88.6 µM; in [4], at least 88.6 µM; in assay [5], at least 88.6 µM. The MIC in [6] and in assay [7] was 22.1 µM (≈ 32 µg/mL) throughout.
As for `CC(C)C[C@H](NC(=O)[C@H](C)NC(=O)[C@H](CO)NC(=O)[C@H](CCCCN)NC(=O)[C@H](CC(C)C)NC(=O)[C@H](CC(C)C)NC(=O)[C@@H](N)CC(N)=O)C(=O)N[C@@H](CCCCN)C(=O)N[C@H](C(=O)N[C@H](C(=O)N[C@@H](CC(N)=O)C(=O)N[C@@H](CCCCN)C(=O)N[C@@H](CC(C)C)C(=O)N[C@@H](CC(C)C)C(=O)N[C@@H](C)C(=O)N[C@@H](C)C(=O)N[C@@H](CO)C(N)=O)C(C)C)[C@@H](C)O` [NLLKSALKTVNKLLAAS], the MIC in [8] was at least 32 µM; in assay [9], 64 µM (≈ 114 µg/mL); in assay [10], 64 µM (≈ 114 µg/mL); in assay [6], 128 µM (≈ 228 µg/mL); in [11] it was 64 µM (≈ 114 µg/mL).
As to `CC(C)C[C@H](NC(=O)CNC(=O)[C@H](CC(N)=O)NC(=O)[C@@H](NC(=O)[C@@H](NC(=O)CNC(=O)[C@H](CC(C)C)NC(=O)[C@H](C)NC(=O)[C@H](CC(=O)O)NC(=O)[C@H](CC(N)=O)NC(=O)[C@H](CC(C)C)NC(=O)[C@H](CC(C)C)NC(=O)[C@@H](N)CC(N)=O)[C@@H](C)O)C(C)C)C(=O)N[C@@H](CC(C)C)C(=O)NCC(=O)N[C@@H](CCCN=C(N)N)C(=O)N[C@@H](CO)C(=O)O` [NLLNDALGTVNGLLGRS], the MIC in [8] is at least 64 µM; in assay [6], 32 µM (≈ 55.3 µg/mL).
In the case of `CC(=O)N[C@@H](CCCN=C(N)N)C(=O)N[C@@H](Cc1c[nH]c2ccccc12)C(=O)N[C@H](C(=O)N[C@@H](Cc1c[nH]c2ccccc12)C(=O)N[C@@H](CCCN=C(N)N)C(=O)NCC(=O)N[C@@H](CO)C(=O)NCC(=O)N[C@@H](CCCN=C(N)N)C(=O)N[C@@H](Cc1c[nH]c2ccccc12)C(=O)N[C@H](C(=O)N[C@@H](Cc1c[nH]c2ccccc12)C(=O)N[C@@H](CCCN=C(N)N)C(N)=O)[C@@H](C)O)[C@@H](C)O` [RWTWRGSGRWTWR], the MIC against Acinetobacter baumannii is 17.9 µM (≈ 32.7 µg/mL); against Bacillus subtilis, 8.93 µM (≈ 16.4 µg/mL); in [12], 0.794 µM (≈ 1.45 µg/mL); in assay [13], 25 µM (≈ 45.8 µg/mL); in the assay with Escherichia coli, 8.93 µM (≈ 16.4 µg/mL); against Micrococcus luteus, 8.93 µM (≈ 16.4 µg/mL). In addition, the MIC in the assay on Pseudomonas aeruginosa is 69.8 µM (≈ 128 µg/mL); against Staphylococcus aureus, 4.47 µM (≈ 8.18 µg/mL); in assay [14] it was at least 279 µM.
